According to patent US7833977B2, “Use of L-Carnitine as stabilizing agent of proteins” (Sigma-Tau Industrie Farmaceutiche Riunite S.p.A., priority 2000, dated 2010):
Entries after “also recorded” stand apart in the source; their conditions may differ.

Legend:
rat lenses = assay: Rat lens organ culture exposed to H2O2 with or without L-carnitine; assay type: cell-based, Sprague-Dawley rats; conditions: after 24 h incubation with H2O2 ± L-carnitine
Procedure: Four-month-old Sprague-Dawley rats were anesthesized with 5 mg/kg xylazine and 65 mg/kg ketamine, and decapitated. Immediately after, eyes were enucleated, extracted and placed in 2 ml of modified TC-199 medium. Lens integrity was assessed by measuring protein leached into the medium after 30-60 min of culture; damaged lenses were discarded. One lens of each pair was placed in culture medium with no H2O2 and used as a control. […] The controlateral lens of each pair was placed in medium and, after equilibration under 5% CO2 at 37° C., was exposed to 500 μM H2O2 in the absence or presence of 300 μM L-carnitine. After 24 h of incubation, morphological characteristics and changes were recorded, and the lenses were photographed. The incubated lenses were rinsed with saline solution, blotted on filter paper, weighed, and then immediately processed for biochemical analysis. To determine lactate dehydrogenase (LDH) leakage, lenses were incubated individually in each different medium, and the medium was harvested daily and saved for LDH analysis.
Decapsulated lenses were homogenized with disposable pestles and then sonicated in extract buffer (20 mM HEPES, 0.2 mM EDTA, 0.5 mM dithiothreitol, 450 mM NaCl, 25% glycerol, […] leupeptin, 0.5 μg/ml protinin, 0.5 mM phenylmethanesulfonyl fluoride) on ice. Aliquots of the homogenate from each of the incubated lenses were removed for GSH and L-carnitine analysis. The remainder was centrifuged for 25 min at 20,000×g to separate the supernatant from the pellet. The pellet was washed with 1.0 ml buffer and dried under nitrogen. This fraction was designated “water-insoluble fraction”. The supernatant fraction was dialyzed twice against 3 ml of 0.025 mol/l phosphate buffer, pH 7.4 for 48 h and lyophilized. This fraction was designated “water-soluble” fraction. The water-soluble and water-insoluble fractions were delipidated with 3.0 ml chloroform:methanol (2:1) for 16 h under shaking followed by centrifugation at 2,000 g for 5 min.
The water-insoluble proteins were suspended in 0.2 M N-ethylmorpholine acetate (pH 8.1). An aliquot (10%) was used to quantitate the amount of total protein. Samples were digested by the sequential addition of proteolytic enzymes (collagenase, pronase, aminopeptidase and carboxypeptidase A, carboxypeptidase B and carboxypeptidase y), directly to the reaction mixture at 37° C. in the presence of 0.02% sodium azide. After enzymatic digestion, the free N-(γ-glutamyl)lysine isopeptide cross-link was resolved by HPLC and quantitated by amino acid analysis (Hohl, D., et al (1991), J Biol Chem. 266, 6626-6636). In a related set of experiments, the isopeptide content of lenses was determined without prior extraction. […]

α-crystallin [1] = assay: Tryptophan fluorescence of α-crystallin fractions from treated lenses; parameters: species or system rat; conditions: excitation 295 nm, emission 330 nm
Text: The loss of-protein tryptophan fluorescence, an indicator of tryptophan oxidation, seems to be a marker of crystallin integrity. We therefore measured-tryptophan fluorescence in lens crystallin (Perkin-Elmer 650-40 spectrophotometer) according to a previously described method (Jones, R. H. V., and Hothersall, J. S. (1993), Exp Eye Res 57, 783-790). The excitation wavelength was set to 295 nm, and the fluorescence emission was detected at 330 nm.

α-crystallin [2] = assay: Chaperone-like activity of α-crystallin from treated lenses (heat-induced βL-crystallin aggregation, light scattering at 360 nm); assay type: biochemical, rat; conditions: 100 or 200 μg α-crystallin + 200 μg βL-crystallin; 55° C. or 58° C.
Procedure: The following experiments were performed essentially as described elsewhere (Horwitz, J. (1992) Proc Natl Acad Sci USA. 89, 10449-10453). The chaperone-like activity of α-crystallin from control and H2O2±L-carnitine treated lenses was determined by heat denaturation studies. The extent to which the unmodified or modified α-crystallin preparation protected βL-crystallin (used as the target protein) from heat-induced denaturation and aggregation was assessed as follows: 100 μg or 200 μg of α-crystallin were added to 200 μg of βL-crystallin in a 1.5-ml cuvette and made up to a final volume of 1 ml with 50 mM phosphate buffer, pH 7.0. The cuvette was placed in a temperature-regulated cell holder attached to a UV spectrophotometer. Light scattering due to protein denaturation and aggregation was monitored at. 360 nm absorbance for 3,000 s at 55° C. or for 1,800 s at 58° C.
The chaperone properties of the purified water-soluble α-crystallin were determined by crystallin (target protein) aggregation assay. Characteristically, βL-crystallin aggregates at elevated temperatures. The addition of α-crystallin either prevents or decreases the heat-induced aggregation of βL-crystallin, which is measured by light scattering at 360 nm. Since the ratio of α to β determines the degree of protection against heat-induced aggregation, we used 100 μg or 200 μg of α-crystallin and 200 μg of βL-crystallin. […]

α-crystallin [3] = assay: GFAP gel forming assay (falling ball viscosimetry) with α-crystallin from treated lenses; assay type: biochemical, rat; conditions: α-crystallin from H2O2 ± L-carnitine-treated lenses; 37° C., 1 h
Text: The sedimentation assay devised by Nicholl and Quinlan (Nicholl, I. D., and Quinlan, R. A. (1994), EMBO J 13, 945-953) was used to assess α-crystallin-induced inhibition of intermediate filament assembly. Purified porcine glial fibrillary acidic: protein (GFAP) was used for these studies; it was purified from porcine spinal cord by axonal flotation as described previously (Pemg, M. D., et al (1999), J Cell Sci. 112, 2099-2112, MacLean-Fletcher, S., and Pollard, T. D. (1980), Biochem Biophys Res Commun 96, 18-27). The gel formation assay was based on a method used to monitor actin binding protein activity by falling ball viscometry (Pemg, M. D., et al (1999), J Cell Sci. 112, 2099-2112). α-Crystallins were mixed with GFAP in 8 M urea, 20 mM Tris-HCI, pH 8.0, 5 mM EDTA, 25 mM 2-mercaptoethanol and then stepwise dialyzed in 10 mM Tris-HCI, pH 8.0, 25 mM 2-mercaptoethanol. Assembly of the GFAP intermediate filaments, in the presence or absence of α-crystallin, was induced by the addition of a 20-fold concentrated buffer to give a final concentration of 100 mM imidazole-HCI, pH 6.8, 0.5 mM DTT. A 100-μl aliquot of sample was loaded into a glass tube and used for the viscosity assay. The tube was then immersed in a 37° C. water bath for 1 h before the gel formation assay. A ball was then placed into the tube, and the ability of the solution to support the ball was monitored. […]

lens crystallins = conditions: Swamy-Mruthinti and Carter 1999; cited from earlier work

Compound | Lens clarity / opacification (rat lenses) | Lens morphology by optical and electron microscopy (rat lenses) | Loss of tryptophan fluorescence in α-crystallin (α-crystallin [1]) | Capacity of α-crystallin to prevent heat-induced aggregation of βL-crystallin (α-crystallin [2]) | Inhibition of GFAP gel formation by α-crystallin (α-crystallin [3]) | Effect on in vitro glycation of lens crystallins (lens crystallins)
OO [H2O2] | became opaque | Ballooning, liquefaction and various degrees of fiber swelling | 2.7 fold | significant decrease | did not affect gel formation | 
C[N+](C)(C)C[C@H](O)CC(=O)[O-] [L-carnitine] | remained clear; also recorded: remained transparent | cell shape was unaltered and that fiber cells were intact | restored the basal value | prevented this negative effect | blocked GFAP gel formation to the same extent as α-crystallin from control lenses | ineffective
CC(=O)O[C@H](CC(=O)[O-])C[N+](C)(C)C [acetyl L-carnitine] |  |  |  |  |  | decreased crystallin glycation
CC(=O)Oc1ccccc1C(=O)O [acetyl salicylic acid] |  |  |  |  |  | decreased crystallin glycation
